These are literature values, as cited in patent US20180256534A1, “KETAMINE AND […] 450 INHIBITOR COMBINATIONS” (SEQUOIA PHARMACEUTICALS, INC., priority 2015, published 2018).

Data set [1] deals with patients with major depressive disorders.

As to `CNC1(c2ccccc2Cl)CCCCC1=O` (centres unmarked) [ketamine], the “serum concentration at which psychotomimetic symptoms appear” value is “about 50 ng/ml”. In data set [1], the “onset of rapid antidepressant effect” value is “two”.
